Reference: patent US9630955B2, “Chemical compound useful as intermediate for preparing a catechol-O-methyltransferase inhibitor” (BIAL—Portela & Cª., S.A, priority 2011, dated 2017)
Like-named read-outs stand apart in the source and are kept apart here.

Experiments:
liver COMT = biological target: T1, liver COMT (Rattus norvegicus, UniProt P22734); experiment: inhibition of liver COMT post oral administration to rats; assay type: in vivo; settings: for ED50: rat, po
T1 construct: from tissue; host or cells: rat liver
T1 sequence (P22734 1-264): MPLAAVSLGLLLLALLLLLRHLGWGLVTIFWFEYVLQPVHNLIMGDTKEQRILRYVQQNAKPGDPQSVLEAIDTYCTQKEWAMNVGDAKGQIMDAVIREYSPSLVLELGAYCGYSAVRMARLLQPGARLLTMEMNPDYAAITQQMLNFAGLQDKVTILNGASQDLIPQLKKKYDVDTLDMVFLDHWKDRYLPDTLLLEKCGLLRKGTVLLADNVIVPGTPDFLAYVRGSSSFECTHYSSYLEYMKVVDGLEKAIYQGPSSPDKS

COMT in the brain = biological target: T2, COMT in the brain (Rattus norvegicus, UniProt P22734); experiment: inhibition of COMT in the brain following oral administration to the rat; assay type: in vivo; settings: over a period of 8 hours post administration
T2 construct: from tissue; host or cells: rat brain
T2 sequence (P22734 1-264): T1 sequence (P22734 1-264)

human recombinant S-COMT = biological target: T3, human recombinant S-COMT (Homo sapiens, UniProt P21964)
T3 sequence (P21964 1-221 isoform P21964-2): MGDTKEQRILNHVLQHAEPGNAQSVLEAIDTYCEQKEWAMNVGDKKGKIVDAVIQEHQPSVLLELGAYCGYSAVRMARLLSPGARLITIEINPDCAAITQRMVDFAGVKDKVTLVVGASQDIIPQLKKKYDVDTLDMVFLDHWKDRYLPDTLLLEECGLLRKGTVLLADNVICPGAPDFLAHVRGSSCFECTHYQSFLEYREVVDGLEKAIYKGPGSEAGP

Compound: Cc1ccc(C(=O)c2cc(O)c(O)c([N+](=O)[O-])c2)cc1 [tolcapone]
- enzyme activity recovery (rat liver COMT) (liver COMT; oral administration, after 9 hours): about 84%
- ED50 (liver COMT; read-out: ED50 inhibiting liver COMT, rats, oral administration, at 3 hours post administration): 1.28 mg/kg
- ED50 (liver COMT; read-out: ED50 inhibiting liver COMT, rats, oral administration, at 6 hours post administration): 2.08 mg/kg
- enzyme activity inhibited (COMT in the brain) (COMT in the brain): about 50%
- inhibition of human recombinant S-COMT (in words) (human recombinant S-COMT): inhibit
